Test results published in patent publication US8455663B2, “Halosubstituted aryloxyalkylimidazolines for use as pesticides” (Syngenta Crop Protection LLC, priority 2007, dated 2013).
Read-outs that look alike come from different tables or passages of the source.

Key:
Type in all cases: in vivo
Heliothis virescens = Heliothis virescens (tobacco budworm) egg/larvae test on artificial diet; details: for pest or weed control at 200 ppm: Heliothis virescens, 96 h, read-out: control of Heliothis virescens
Protocol: 4.1 Heliothis Virescens (Tobacco Budworm):
Eggs (0-24 h old) were placed in 24-well microtiter plate on artificial diet and treated with test solutions at an application rate of 200 ppm by pipetting. After an incubation period of 4 days, samples were checked for egg mortality, larval mortality, and growth regulation.

Myzus persicae [1] = experiment: Myzus persicae (green peach aphid) sunflower leaf disc spray test; details: for pest or weed control at 200 ppm: Myzus persicae, foliar, 144 h, read-out: control of Myzus persicae
Protocol: 4.2 Myzus Persicae (Green Peach Aphid):
Sunflower leaf discs were placed on agar in a 24-well microtiter plate and sprayed with test solutions at an application rate of 200 ppm. After drying, the leaf discs were infested with an aphid population of mixed ages. After an incubation period of 6 DAT, samples were checked for mortality.

Myzus persicae [2] = experiment: Myzus persicae (green peach aphid) pea seedling root uptake test; details: for pest or weed control at 24 ppm: Myzus persicae, 144 h, read-out: control of Myzus persicae
From the text: 4.3 Myzus Persicae (Green Peach Aphid):
Roots of pea seedlings, infested with an aphid population of mixed ages, were placed directly in the test solutions of 24 ppm. 6 days after introduction, samples were checked for mortality.

Tetranychus urticae = Tetranychus urticae (two-spotted spider mite) bean leaf disc spray test; details: for pest or weed control at 200 ppm: Tetranychus urticae, foliar, 192 h, read-out: control of Tetranychus urticae
From the text: 4.4 Tetranychus Urticae (Two-Spotted Spider Mite):
4.4.1 Bean leaf discs on agar in 24-well microtiter plates were sprayed with test solutions at an application rate of 200 ppm. After drying, the leaf discs are infested with mite populations of mixed ages. 8 days later, discs are checked for egg mortality, larval mortality, and adult mortality.

T. Urticae = experiment: Tetranychus urticae bean leaf disc test, comparison with prior art compounds A and B; details: 12.5 ppm spray on bean leaf discs; mixed ages; 8 days; egg, larval and adult mortality
From the text: 4.4.2 In a further test, the efficacy of one of the compounds giving 100% control in Example 4.4.1 above was compared to the efficacy of imidazoline compounds from the prior art (compounds A and B).
Bean leaf discs on agar in 24-well microtiter plates were sprayed with test solutions at an application rate of 12.5 ppm. After drying, the leaf discs are infested with mite populations of mixed ages. 8 days later, discs are checked for egg mortality, larval mortality, and adult mortality.

[3] = 200 ppm by pipetting on eggs (0-24 h old) on artificial diet, 4 days, egg mortality, larval mortality, growth regulation
[4] = 200 ppm spray on sunflower leaf discs, mixed ages, 6 DAT, mortality
[5] = 24 ppm test solution, roots of infested pea seedlings, 6 days, mortality
[6] = 200 ppm spray on bean leaf discs, mixed ages, 8 days, egg, larval and adult mortality

| Compound | pest or weed control at 200 ppm (Heliothis virescens; [3]) | pest or weed control at 200 ppm (Myzus persicae [1]; [4]) | pest or weed control at 24 ppm (Myzus persicae [2]; [5]) | pest or weed control at 200 ppm (Tetranychus urticae; [6]) | other results |
| --- | --- | --- | --- | --- | --- |
| CC(C)C(Oc1cccc(C(F)F)c1Cl)C1=NCCN1 (stereo not shown) [Compound 1.030] | 0% | 100% | 80% | 100% | – |
| CCC(Oc1cccc(C#N)c1Cl)C1=NCCN1 (stereo not shown) [Compound 1.024] | 0% | 80% | 50% | 100% | – |
| CCCC(Oc1cccc(I)c1Br)C1=NCCN1 (stereo not shown) [Compound 1.022] | 50% | 100% | – | 80% | – |
| C=Cc1cccc(OC(CC)C2=NCCN2C(=O)OC(C)(C)C)c1Cl (stereo not shown) [Compound 1.017] | 0% | 0% | – | 0% | – |
| CCCCC(Oc1cccc(C(F)(F)F)c1Cl)C1=NCCN1 (stereo not shown) [Compound 1.027] | 50% | 80% | 0% | 100% | – |
| CCCCC(Oc1cccc(CF)c1Cl)C1=NCCN1 (stereo not shown) [Compound 1.032] | 0% | 100% | 50% | 0% | – |
| CCC(Oc1cccc(CF)c1Cl)C1=NCCN1 (stereo not shown) [Compound 1.006] | 100% | 100% | 80% | 100% | – |
| CCC(Oc1cccc(CSC)c1Cl)C1=NCCN1 (stereo not shown) [Compound 1.019] | – | – | – | – | control of Heliothis virescens (Heliothis virescens; [3]): 0%; control of Myzus persicae (Myzus persicae [1]; [4]): 0%; control of Tetranychus urticae (Tetranychus urticae; [6]): 0% |
| C#Cc1cccc(OC(CC)C2=NCCN2)c1Cl (stereo not shown) [Compound 1.011, 2-[1-(2-Chloro-3-ethynyl-phenoxy)-propyl]-4,5-dihydro-1H-imidazole] | 50% | 50% | – | 0% | – |
| CC(Oc1cccc(C(F)(F)F)c1Cl)C1=NCCN1 (stereo not shown) [Compound 1.014] | 80% | 100% | 50% | 80% | – |
| CCCC(Oc1cccc(C(F)(F)F)c1Cl)C1=NCCN1 (stereo not shown) [Compound 1.015] | – | – | – | – | control of Heliothis virescens (Heliothis virescens; [3]): 100%; control of Myzus persicae (Myzus persicae [1]; [4]): 100%; control of Myzus persicae (Myzus persicae [2]; [5]): 50%; control of Tetranychus urticae (Tetranychus urticae; [6]): 100% |
| C=Cc1cccc(OC(CC)C2=NCCN2)c1Cl (stereo not shown) [Compound 1.012] | 0% | 0% | – | 0% | – |
| CCCC(Oc1cccc(C(F)F)c1Cl)C1=NCCN1 (stereo not shown) [Compound 1.028] | 80% | 100% | 100% | 100% | – |
| CC(C)C(Oc1cccc(CF)c1Cl)C1=NCCN1 (stereo not shown) [Compound 1.037] | 80% | 100% | 50% | 100% | – |
| CCC(Oc1cccc(CO)c1Cl)C1=NCCN1 (stereo not shown) [Compound 1.005] | 0% | 0% | 0% | 0% | – |
| CCC(Oc1cccc(C(F)F)c1Cl)C1=NCCN1C(=O)OC(C)(C)C (stereo not shown) [Compound 1.003] | 0% | 100% | 0% | 0% | – |

| Compound | pest or weed control at 200 ppm (Heliothis virescens; [3]) | pest or weed control at 200 ppm (Myzus persicae [1]; [4]) | pest or weed control at 24 ppm (Myzus persicae [2]; [5]) | pest or weed control at 200 ppm (Tetranychus urticae; [6]) | other results |
| --- | --- | --- | --- | --- | --- |
| CCC(Oc1cccc(C#N)c1Cl)C1=NCCN1C(=O)OC(C)(C)C (stereo not shown) [Compound 1.025] | 0% | 0% | – | 50% | – |
| CCC(Oc1cccc(C(F)(F)F)c1I)C1=NCCN1.O=C(O)/C=C\C(=O)O (stereo not shown) [Compound 1.020] | – | – | – | – | control of Heliothis virescens (Heliothis virescens; [3]): 0%; control of Myzus persicae (Myzus persicae [1]; [4]): 100%; control of Myzus persicae (Myzus persicae [2]; [5]): 80%; control of Tetranychus urticae (Tetranychus urticae; [6]): 100% |
| CCC(Oc1cccc(COC)c1Cl)C1=NCCN1 (stereo not shown) [Compound 1.008] | – | – | – | – | control of Heliothis virescens (Heliothis virescens; [3]): 80%; control of Myzus persicae (Myzus persicae [1]; [4]): 0%; control of Tetranychus urticae (Tetranychus urticae; [6]): 0% |
| CC(C)C(Oc1cccc(C(F)(F)F)c1Cl)C1=NCCN1 (stereo not shown) [Compound 1.016] | 0% | 100% | 80% | 100% | – |
| CCCCC(Oc1cccc(C(F)F)c1Cl)C1=NCCN1 (stereo not shown) [Compound 1.029] | 80% | – | – | – | – |
| CCC(Oc1cccc(C(F)F)c1Cl)C1=NCCN1 (stereo not shown) [Compound 1.002, 2-[1-(2-Chloro-3-difluoromethyl-phenoxy)-propyl]-4,5-dihydro-1H-imidazole] | – | – | – | – | pest or weed control at 200 ppm (Heliothis virescens): 0%; pest or weed control at 200 ppm (Myzus persicae [1]): 100%; pest or weed control at 24 ppm (Myzus persicae [2]): 80%; pest or weed control at 200 ppm (Tetranychus urticae): 100% |
| CCCC(Oc1cccc(Br)c1Cl)C1=NCCN1 (stereo not shown) [Compound 1.036] | 100% | 100% | 0% | 100% | – |
| CCC(Oc1cccc(Cl)c1Cl)C1=NCCN1 (stereo not shown) [A] | – | – | – | – | Control % (T. Urticae): 0% |
| CCCC(Oc1cccc(CF)c1Cl)C1=NCCN1 (stereo not shown) [Compound 1.031] | 0% | 100% | 80% | 100% | – |
| CCCC(Oc1cccc(I)c1Cl)C1=NCCN1 (stereo not shown) [Compound 1.033] | 80% | 100% | 0% | 80% | – |
| CCCC(Oc1cccc(Br)c1Br)C1=NCCN1 (stereo not shown) [Compound 1.021] | 100% | 100% | 0% | 100% | – |
| CCC(Oc1cccc(C[S+](C)[O-])c1Cl)C1=NCCN1 (stereo not shown) [Compound 1.035] | – | – | – | – | control of Heliothis virescens (Heliothis virescens; [3]): 0%; control of Myzus persicae (Myzus persicae [1]; [4]): 0%; control of Tetranychus urticae (Tetranychus urticae; [6]): 0% |
| CC(Oc1cccc(C(F)F)c1Cl)C1=NCCN1 (stereo not shown) [Compound 1.023] | 80% | 100% | 0% | 0% | – |
| CCC(Oc1cccc(C)c1Cl)C1=NCCN1 (stereo not shown) [B] | – | – | – | – | Control % (T. Urticae): 50% |
| CCC(Oc1cccc(CCl)c1Cl)C1=NCCN1C(=O)OC(C)(C)C (stereo not shown) [Compound 1.034] | – | – | – | – | control of Heliothis virescens (Heliothis virescens; [3]): 100%; control of Myzus persicae (Myzus persicae [1]; [4]): 0%; control of Tetranychus urticae (Tetranychus urticae; [6]): 0% |
| CCC(Oc1cccc(CO)c1Cl)C1=NCCN1C(=O)OC(C)(C)C (stereo not shown) [Compound 1.007] | 0% | 0% | – | 0% | – |
